# Source: ChEMBL document CHEMBL1201862, “PubChem BioAssay data set” (2004)
#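 Dose response: 5 concentrations. Exposure: 48 h. Format: 96-well plates. Endpoint: linear interpolation; highest concentration if not reached. The concentration for 50% growth inhibition is given as GI50.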 Calls of active or inactive are those of the source. Cut-off read from the data, not from the text of the source: active = GI50 up to about 1.1 µM and inactive = higher. Where a SMILES comes first, the peptide text is derived from it. The star is where a group is joined. Cbz = O=C(OCc1ccccc1)*; Boc = CC(C)(C)OC(=O)*; tBu = CC(C)(C)*
# Key:
# Assay in all cases: growth of human tumour cells (NCI), 48 h
# IGROV-1 = tested on: IGROV-1
# OVCAR-4 = tested on: OVCAR-4
# SR = tested on: SR
# RPMI-8226 = tested on: RPMI-8226
# SF-539 = tested on: SF-539
# NCI-H23 = tested on: NCI-H23
# SK-MEL-5 = tested on: SK-MEL-5
# HCC 2998 = tested on: HCC 2998
# SK-MEL-28 = tested on: SK-MEL-28
# A498 = tested on: A498
# DU-145 = tested on: DU-145
# ACHN = tested on: ACHN
# KM12 = tested on: KM12
# UO-31 = tested on: UO-31
# SN12C = tested on: SN12C
# HT-29 = tested on: HT-29
# HL-60 = tested on: HL-60
# SK-MEL-2 = tested on: SK-MEL-2
# TK-10 = tested on: TK-10
# HOP-92 = tested on: HOP-92
SMILES,GI50 (IGROV-1),GI50 (OVCAR-4),GI50 (SR),GI50 (RPMI-8226),GI50 (SF-539),GI50 (NCI-H23),GI50 (SK-MEL-5),GI50 (HCC 2998),GI50 (SK-MEL-28),GI50 (A498),GI50 (DU-145),GI50 (ACHN),GI50 (KM12),GI50 (UO-31),GI50 (SN12C),GI50 (HT-29),GI50 (HL-60),GI50 (SK-MEL-2),GI50 (TK-10),GI50 (HOP-92)
O=[N+]([O-])/C(Cl)=C(\Nc1ccccc1)C(Cl)=C(Cl)Cl,32.4 µM (inactive),41.6 µM (inactive),27.4 µM (inactive),25.6 µM (inactive),27.9 µM (inactive),44.8 µM (inactive),23.7 µM (inactive),37.5 µM (inactive),36.8 µM (inactive),30.8 µM (inactive),36.8 µM (inactive),29.2 µM (inactive),12.9 µM (inactive),40.7 µM (inactive),33.9 µM (inactive),30.5 µM (inactive),20.9 µM (inactive),28.8 µM (inactive),56.6 µM (inactive),28.9 µM (inactive)
COc1oc(C(=O)NC2CCCCC2)c(-c2ccc(Cl)cc2)c1S(=O)(=O)c1ccccc1,1.82 µM (inactive),1.7 µM (inactive),5.51 µM (inactive),2.15 µM (inactive),6.58 µM (inactive),–,28.1 µM (inactive),19 µM (inactive),49.3 µM (inactive),2.15 µM (inactive),18.3 µM (inactive),31 µM (inactive),5.55 µM (inactive),1.82 µM (inactive),20.1 µM (inactive),2.26 µM (inactive),2.4 µM (inactive),13.4 µM (inactive),> 53.1 µM (inactive),1.5 µM (inactive)
C=CC[C@@]1(C)CCCCCCCCC[C@@](C)(CC=C)C1=O,31 µM (inactive),> 100 µM (inactive),27.5 µM (inactive),28.3 µM (inactive),41.1 µM (inactive),25.5 µM (inactive),16 µM (inactive),17.4 µM (inactive),34.1 µM (inactive),17.1 µM (inactive),50.2 µM (inactive),34.6 µM (inactive),30.1 µM (inactive),53.6 µM (inactive),29.2 µM (inactive),18.7 µM (inactive),20.7 µM (inactive),17.8 µM (inactive),99.1 µM (inactive),46.8 µM (inactive)
CC(OC(C)(C)C)C(NC(=O)C(CCCCNC(=O)OC(C)(C)C)NC(=O)C(Cc1c[nH]c2ccccc12)NC(=O)C(Cc1ccccc1)NC(=O)OCc1ccccc1)C(=O)NC(Cc1ccccc1)C(=O)O (centres undefined) (Cbz-FWK(Boc)T(tBu)F-OH; configuration not given here),31 µM (inactive),91 µM (inactive),44.4 µM (inactive),43.5 µM (inactive),31.8 µM (inactive),61.7 µM (inactive),1.66 µM (inactive),30.8 µM (inactive),57.8 µM (inactive),> 100 µM (inactive),61.1 µM (inactive),69.3 µM (inactive),43.3 µM (inactive),> 100 µM (inactive),25.8 µM (inactive),33.5 µM (inactive),> 100 µM (inactive),41.7 µM (inactive),> 100 µM (inactive),> 100 µM (inactive)
CSc1ccccc1NC1=NCCO1,> 100 µM (inactive),> 100 µM (inactive),> 100 µM (inactive),> 100 µM (inactive),> 100 µM (inactive),> 100 µM (inactive),> 100 µM (inactive),> 100 µM (inactive),> 100 µM (inactive),> 100 µM (inactive),> 100 µM (inactive),> 100 µM (inactive),> 100 µM (inactive),> 100 µM (inactive),> 100 µM (inactive),> 100 µM (inactive),> 100 µM (inactive),> 100 µM (inactive),> 100 µM (inactive),> 100 µM (inactive)
C=C(C)[C@@H]1CC[C@]2(C(=O)OC3OC(COC4OC(CO)C(OC5OC(C)C(O)C(O)C5O)C(O)C4O)C(O)C(O)C3O)CC[C@]3(C)[C@H](CC[C@@H]4[C@@]5(C)CC[C@H](O)[C@@](C)(CO)[C@@H]5CC[C@]43C)[C@@H]12 (some centres undefined),2.74 µM (inactive),3.44 µM (inactive),0.755 µM (active),0.929 µM (active),2.58 µM (inactive),1.04 µM (active),2.84 µM (inactive),2.56 µM (inactive),5.79 µM (inactive),2.48 µM (inactive),4.8 µM (inactive),2 µM (inactive),0.625 µM (active),3.93 µM (inactive),3.5 µM (inactive),3.05 µM (inactive),0.0986 µM (active),2.39 µM (inactive),3.49 µM (inactive),3.1 µM (inactive)
